In ChEMBL document CHEMBL1201862, “PubChem BioAssay data set” (2004):
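96-well plates; 48 h exposure; 5 concentrations. Endpoints by linear interpolation between flanking doses. Not reached: highest tested concentration assigned. Here, GI50 denotes the concentration required for 50% inhibition of growth.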 Activity calls are given as the source filed them. No stated cut-off is given here; in the data, active = GI50 up to about 1.1 µM and inactive = higher.

Key:
Assay in all cases: inhibition of tumour cell growth, NCI panel, 48 h
[1] = test system: CCRF-CEM
[2] = test system: MDA-MB-231
[3] = test system: SNB-19
[4] = test system: NCI/ADR-RES
[5] = test system: RXF 393
[6] = test system: A549
[7] = test system: SF-539
[8] = test system: SN12C
[9] = test system: SF-268
[10] = test system: Hs-578T
[11] = test system: K562
[12] = test system: RPMI-8226
[13] = test system: HCT-15
[14] = test system: HT-29
[15] = test system: ACHN
[16] = test system: U-251
[17] = test system: MDA-MB-435
[18] = test system: MCF7
[19] = test system: HOP-62
[20] = test system: SR

In the case of `O=C(NCCCCN(CCCNC(=O)C(F)(F)F)Cc1ccc2ccccc2c1)C(F)(F)F`, the GI50 [1] is reported as > 10 µM (inactive), the GI50 [2] is reported as 16.7 µM (inactive) and the GI50 [3] is reported as 14 µM (inactive). The GI50 [4] was 14.5 µM (inactive), the GI50 [5] was 17.5 µM (inactive) and the GI50 [6] was 30.4 µM (inactive). The GI50 [7] was 16.3 µM (inactive), the GI50 [8] was 16.1 µM (inactive) and the GI50 [9] was 16 µM (inactive). The GI50 [10] was 17.7 µM (inactive), the GI50 [11] was 16.7 µM (inactive) and the GI50 [12] was > 10 µM (inactive). For the same molecule, the GI50 [13] was 17.3 µM, the GI50 [14] was 13.7 µM (inactive) and the GI50 [15] was 24.3 µM (inactive). For the same molecule, the GI50 [16] was 26.4 µM (inactive), the GI50 [17] was 19.3 µM (inactive) and the GI50 [18] was 14.7 µM (inactive).

In the case of `Cc1ncc([N+](=O)[O-])n1CCN(C)CCCCn1ccnc1[N+](=O)[O-]`, the GI50 [1] is reported as > 100 µM (inactive), the GI50 [2] is reported as > 100 µM (inactive) and the GI50 [3] is reported as > 100 µM (inactive). The GI50 [5] was > 100 µM (inactive), the GI50 [6] was > 100 µM (inactive) and the GI50 [7] was > 100 µM (inactive). For the same molecule, the GI50 [8] was > 100 µM (inactive), the GI50 [9] was > 100 µM (inactive) and the GI50 [10] was > 100 µM (inactive). For the same molecule, the GI50 [11] was > 100 µM (inactive), the GI50 [12] was > 100 µM (inactive) and the GI50 [13] was greater than 100 µM. The GI50 [19] was > 100 µM (inactive), the GI50 [20] was > 100 µM (inactive) and the GI50 [14] was > 100 µM (inactive). For the same molecule, the GI50 [15] was > 100 µM (inactive), the GI50 [16] was > 100 µM (inactive) and the GI50 [17] was > 100 µM (inactive). For the same molecule, the GI50 [18] was > 100 µM (inactive).

For `[N-]=[N+]=Nc1ccc(NCCCCCC(=O)ON2C(=O)CCC2=O)c([N+](=O)[O-])c1`, the GI50 [2] was 77.1 µM (inactive), the GI50 [3] was > 100 µM (inactive) and the GI50 [4] was 31.1 µM (inactive). For the same molecule, the GI50 [5] was 40.8 µM (inactive), the GI50 [6] was 78.9 µM (inactive) and the GI50 [7] was 30.5 µM (inactive). The GI50 [8] was 27.4 µM (inactive), the GI50 [9] was 39.3 µM (inactive) and the GI50 [10] was < 0.01 µM (active). The GI50 [11] was 22.4 µM (inactive), the GI50 [13] was greater than 100 µM and the GI50 [19] was 72.9 µM (inactive). The GI50 [14] was > 100 µM (inactive), the GI50 [15] was 49.1 µM (inactive) and the GI50 [16] was > 100 µM (inactive). For the same molecule, the GI50 [17] was 48.1 µM (inactive) and the GI50 [18] was > 100 µM (inactive).

In the case of `CC(C)C1=CC23CCC4C(C)(C(=O)O)CCCC4(C)C2CC1C1C(=O)N(c2ccccc2N2C(=O)C4C5CC6C7(C)CCCC(C)(C(=O)O)C7CCC6(C=C5C(C)C)C4C2=O)C(=O)C13` (stereo not drawn), the GI50 [1] is reported as 4.39 µM (inactive), the GI50 [2] is reported as 11.6 µM (inactive) and the GI50 [3] is reported as 4.79 µM (inactive). The GI50 [5] was 11.3 µM (inactive), the GI50 [6] was 14 µM (inactive) and the GI50 [7] was 3.1 µM (inactive). The GI50 [8] was 9.06 µM (inactive), the GI50 [9] was 3.09 µM (inactive) and the GI50 [10] was 9.55 µM (inactive). For the same molecule, the GI50 [11] was 6.58 µM (inactive), the GI50 [12] was 7.64 µM (inactive) and the GI50 [13] was 14.3 µM. For the same molecule, the GI50 [19] was 4.67 µM (inactive), the GI50 [20] was 3.89 µM (inactive) and the GI50 [14] was 3.32 µM (inactive). For the same molecule, the GI50 [15] was 10.2 µM (inactive), the GI50 [16] was 3.16 µM (inactive) and the GI50 [17] was 3.63 µM (inactive). The GI50 [18] was 3.66 µM (inactive).

With `CC1(C)CC(=O)C2=C(C1)NC(SCC(=O)O)=C(C#N)C2c1ccc(Br)cc1` (stereo not drawn) the GI50 [1] was > 100 µM (inactive), the GI50 [2] was > 100 µM (inactive) and the GI50 [3] was > 100 µM (inactive). For the same molecule, the GI50 [4] was > 100 µM (inactive), the GI50 [5] was > 100 µM (inactive) and the GI50 [6] was > 100 µM (inactive). For the same molecule, the GI50 [9] was > 100 µM (inactive), the GI50 [10] was > 100 µM (inactive) and the GI50 [13] was greater than 100 µM. The GI50 [19] was > 100 µM (inactive), the GI50 [14] was > 100 µM (inactive) and the GI50 [15] was > 100 µM (inactive). For the same molecule, the GI50 [16] was > 100 µM (inactive), the GI50 [17] was > 100 µM (inactive) and the GI50 [18] was > 100 µM (inactive).
